In the supplement of paper PMC10307832:

Tests used:
Test in all cases: relative viability (nuclei count vs DMSO), 5 days (fraction); higher = more cells survive
[1] = compound: N#CC[C@H](C1CCCC1)n1cc(-c2ncnc3[nH]ccc23)cn1 [Ruxolitinib] + NC(=O)Nc1cc(-c2cccc(F)c2)sc1C(=O)N[C@H]1CCCNC1 [AZD7762] (partner 0.2 µM)
Method in brief: (§1)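 Medians of duplicate plates are given as relative viability. That measure is the nuclei count in treated wells divided by the count in vehicle wells. Counts were taken on 4× images of lung cancer cell lines in 1536-well plates, 5 days after pin-tool dosing the day after seeding with one drug alone or a fixed anchor-drug dose plus five library-drug doses (not always all listed) in √10 steps.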

[2] = compound: CS(=O)(=O)c1ccc(C(=O)Nc2ccc(Cl)c(-c3ccccn3)c2)c(Cl)c1 [Vismodegib] + CC(=O)Nc1cccc(-n2c(=O)n(C3CC3)c(=O)c3c(Nc4ccc(I)cc4F)n(C)c(=O)c(C)c32)c1 [Trametinib] (partner 0.02 µM)
Method in brief: as §1

[3] = compound: CS(=O)(=O)c1ccc(-c2cnc(N)c(C(=O)Nc3ccccc3)n2)cc1 [VE-821] + CC(=O)Nc1cccc(-n2c(=O)n(C3CC3)c(=O)c3c(Nc4ccc(I)cc4F)n(C)c(=O)c(C)c32)c1 [Trametinib] (partner 0.02 µM)
Method in brief: as §1

[4] = compound: N#CC[C@H](C1CCCC1)n1cc(-c2ncnc3[nH]ccc23)cn1 [Ruxolitinib] + O=C(c1cc(Cc2n[nH]c(=O)c3ccccc23)ccc1F)N1CCN(C(=O)C2CC2)CC1 [Olaparib] (partner 8 µM)
Method in brief: as §1

Cell Line: NCI-H1975
- relative viability ([1]; first compound 0.08 µM): 0.669
- relative viability ([1]; first compound 0.253 µM): 0.643
- relative viability ([1]; first compound 0.8 µM): 0.675
- relative viability ([1]; first compound 2.53 µM): 0.67
- relative viability ([1]; first compound 8 µM): 0.501
- relative viability ([2]; first compound 0.08 µM): 0.32
- relative viability ([2]; first compound 0.253 µM): 0.24
- relative viability ([2]; first compound 0.8 µM): 0.374
- relative viability ([2]; first compound 2.53 µM): 0.357
- relative viability ([2]; first compound 8 µM): 0.331
- relative viability ([3]; first compound 0.08 µM): 0.359
- relative viability ([3]; first compound 0.253 µM): 0.37
- relative viability ([3]; first compound 0.8 µM): 0.199
- relative viability ([3]; first compound 2.53 µM): 0.352
- relative viability ([3]; first compound 8 µM): 0.227
- relative viability ([4]; first compound 0.08 µM): 0.854
- relative viability ([4]; first compound 0.253 µM): 0.786
- relative viability ([4]; first compound 0.8 µM): 0.716
- relative viability ([4]; first compound 2.53 µM): 0.675
- relative viability ([4]; first compound 8 µM): 0.421

Cell Line: NCI-H1993
- relative viability ([1]; first compound 0.08 µM): 0.828
- relative viability ([1]; first compound 0.253 µM): 0.646
- relative viability ([1]; first compound 0.8 µM): 1.05
- relative viability ([1]; first compound 2.53 µM): 0.794
- relative viability ([1]; first compound 8 µM): 0.985
- relative viability ([2]; first compound 0.08 µM): 0.508
- relative viability ([2]; first compound 0.253 µM): 0.607
- relative viability ([2]; first compound 0.8 µM): 0.549
- relative viability ([2]; first compound 2.53 µM): 0.438
- relative viability ([2]; first compound 8 µM): 0.492
- relative viability ([3]; first compound 0.08 µM): 0.534
- relative viability ([3]; first compound 0.253 µM): 0.604
- relative viability ([3]; first compound 0.8 µM): 0.61
- relative viability ([3]; first compound 2.53 µM): 0.505
- relative viability ([3]; first compound 8 µM): 0.502
- relative viability ([4]; first compound 0.08 µM): 0.879
- relative viability ([4]; first compound 0.253 µM): 0.953
- relative viability ([4]; first compound 0.8 µM): 1.42
- relative viability ([4]; first compound 2.53 µM): 1.47
- relative viability ([4]; first compound 8 µM): 1.02

Cell Line: NCI-H2085
- relative viability ([1]; first compound 0.08 µM): 1.08
- relative viability ([1]; first compound 0.253 µM): 1.1
- relative viability ([1]; first compound 0.8 µM): 1.01
- relative viability ([1]; first compound 2.53 µM): 0.921
- relative viability ([1]; first compound 8 µM): 0.984
- relative viability ([2]; first compound 0.08 µM): 0.551
- relative viability ([2]; first compound 0.253 µM): 0.549
- relative viability ([2]; first compound 0.8 µM): 0.594
- relative viability ([2]; first compound 2.53 µM): 0.621
- relative viability ([2]; first compound 8 µM): 0.539
- relative viability ([3]; first compound 0.08 µM): 0.507
- relative viability ([3]; first compound 0.253 µM): 0.463
- relative viability ([3]; first compound 0.8 µM): 0.269
- relative viability ([3]; first compound 8 µM): 0.364
- relative viability ([4]; first compound 0.08 µM): 0.781
- relative viability ([4]; first compound 0.253 µM): 0.804
- relative viability ([4]; first compound 0.8 µM): 0.755
- relative viability ([4]; first compound 2.53 µM): 0.64
- relative viability ([4]; first compound 8 µM): 0.588

Cell Line: NCI-H2087
- relative viability ([1]; first compound 0.08 µM): 1.19
- relative viability ([1]; first compound 0.8 µM): 1.39
- relative viability ([1]; first compound 2.53 µM): 1.21
- relative viability ([1]; first compound 8 µM): 0.956
- relative viability ([2]; first compound 0.08 µM): 0.199
- relative viability ([2]; first compound 0.253 µM): 0.183
- relative viability ([2]; first compound 0.8 µM): 0.166
- relative viability ([2]; first compound 2.53 µM): 0.172
- relative viability ([2]; first compound 8 µM): 0.213
- relative viability ([3]; first compound 0.08 µM): 0.218
- relative viability ([3]; first compound 0.253 µM): 0.275
- relative viability ([3]; first compound 0.8 µM): 0.177
- relative viability ([3]; first compound 2.53 µM): 0.222
- relative viability ([3]; first compound 8 µM): 0.234
- relative viability ([4]; first compound 0.08 µM): 0.433
- relative viability ([4]; first compound 0.8 µM): 0.454
- relative viability ([4]; first compound 2.53 µM): 0.631
- relative viability ([4]; first compound 8 µM): 0.579

Cell Line: NCI-H2126
- relative viability ([1]; first compound 0.08 µM): 0.954
- relative viability ([1]; first compound 0.253 µM): 1.12
- relative viability ([1]; first compound 0.8 µM): 1.09
- relative viability ([1]; first compound 2.53 µM): 0.995
- relative viability ([1]; first compound 8 µM): 0.967
- relative viability ([2]; first compound 0.08 µM): 0.558
- relative viability ([2]; first compound 0.253 µM): 0.519
- relative viability ([2]; first compound 0.8 µM): 0.568
- relative viability ([2]; first compound 2.53 µM): 0.58
- relative viability ([2]; first compound 8 µM): 0.565
- relative viability ([3]; first compound 0.08 µM): 0.54
- relative viability ([3]; first compound 0.253 µM): 0.54
- relative viability ([3]; first compound 0.8 µM): 0.549
- relative viability ([3]; first compound 2.53 µM): 0.495
- relative viability ([3]; first compound 8 µM): 0.533
- relative viability ([4]; first compound 0.08 µM): 0.923
- relative viability ([4]; first compound 0.253 µM): 0.933
- relative viability ([4]; first compound 0.8 µM): 0.958
- relative viability ([4]; first compound 2.53 µM): 0.879
- relative viability ([4]; first compound 8 µM): 0.811

Cell Line: NCI-H2170
- relative viability ([1]; first compound 0.08 µM): 0.908
- relative viability ([1]; first compound 0.253 µM): 0.834
- relative viability ([1]; first compound 0.8 µM): 0.959
- relative viability ([1]; first compound 2.53 µM): 0.76
- relative viability ([1]; first compound 8 µM): 0.706
- relative viability ([2]; first compound 0.08 µM): 0.89
- relative viability ([2]; first compound 0.253 µM): 0.897
- relative viability ([2]; first compound 0.8 µM): 1
- relative viability ([2]; first compound 2.53 µM): 0.857
- relative viability ([2]; first compound 8 µM): 0.987
- relative viability ([3]; first compound 0.08 µM): 0.977
- relative viability ([3]; first compound 0.253 µM): 0.865
- relative viability ([3]; first compound 0.8 µM): 0.947
- relative viability ([3]; first compound 2.53 µM): 0.819
- relative viability ([3]; first compound 8 µM): 0.629
- relative viability ([4]; first compound 0.08 µM): 0.584
- relative viability ([4]; first compound 0.253 µM): 0.686
- relative viability ([4]; first compound 0.8 µM): 0.592
- relative viability ([4]; first compound 2.53 µM): 0.579
- relative viability ([4]; first compound 8 µM): 0.5

Cell Line: NCI-H2342
- relative viability ([1]; first compound 0.08 µM): 0.429
- relative viability ([1]; first compound 0.253 µM): 0.447
- relative viability ([1]; first compound 0.8 µM): 0.488
- relative viability ([1]; first compound 2.53 µM): 0.422
- relative viability ([1]; first compound 8 µM): 0.649
- relative viability ([2]; first compound 0.08 µM): 1.02
- relative viability ([2]; first compound 0.253 µM): 0.738
- relative viability ([2]; first compound 0.8 µM): 0.843
- relative viability ([2]; first compound 2.53 µM): 0.764
- relative viability ([2]; first compound 8 µM): 0.728
- relative viability ([3]; first compound 0.08 µM): 0.804
- relative viability ([3]; first compound 0.253 µM): 0.907
- relative viability ([3]; first compound 0.8 µM): 0.8
- relative viability ([3]; first compound 2.53 µM): 0.849
- relative viability ([3]; first compound 8 µM): 0.492
- relative viability ([4]; first compound 0.08 µM): 0.46
- relative viability ([4]; first compound 0.253 µM): 0.533
- relative viability ([4]; first compound 0.8 µM): 0.413
- relative viability ([4]; first compound 2.53 µM): 0.498
- relative viability ([4]; first compound 8 µM): 0.398

Cell Line: NCI-H2347
- relative viability ([1]; first compound 0.08 µM): 0.8
- relative viability ([1]; first compound 0.253 µM): 0.89
- relative viability ([1]; first compound 0.8 µM): 0.766
- relative viability ([1]; first compound 2.53 µM): 0.769
- relative viability ([1]; first compound 8 µM): 0.877
- relative viability ([2]; first compound 0.08 µM): 0.311
- relative viability ([2]; first compound 0.253 µM): 0.286
- relative viability ([2]; first compound 0.8 µM): 0.265
- relative viability ([2]; first compound 2.53 µM): 0.301
- relative viability ([2]; first compound 8 µM): 0.288
- relative viability ([3]; first compound 0.08 µM): 0.298
- relative viability ([3]; first compound 0.253 µM): 0.276
- relative viability ([3]; first compound 0.8 µM): 0.289
- relative viability ([3]; first compound 2.53 µM): 0.292
- relative viability ([3]; first compound 8 µM): 0.324
- relative viability ([4]; first compound 0.08 µM): 0.527
- relative viability ([4]; first compound 0.253 µM): 0.627
- relative viability ([4]; first compound 0.8 µM): 0.644
- relative viability ([4]; first compound 2.53 µM): 0.599
- relative viability ([4]; first compound 8 µM): 0.572
